# How the values were obtained:
# Experiment in all cases: relative viability (nuclei count vs DMSO), 5 days (fraction); higher = more cells survive
# VX-11e + Trametinib = compound: CC1=CN=C(N=C1C2=CNC(=C2)C(=O)N[C@H](CO)C3=CC(=CC=C3)Cl)NC4=C(C=C(C=C4)F)Cl [VX-11e] + CC(=O)Nc1cccc(-n2c(=O)n(C3CC3)c(=O)c3c(Nc4ccc(I)cc4F)n(C)c(=O)c(C)c32)c1 [Trametinib] (partner 0.02 µM)
# Outline: (§1)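 Each reported value is a median over duplicate plates. It expresses relative viability: treated-well nuclei count divided by vehicle-well nuclei count. Lung cancer cell lines in 1536-well plates were dosed by pin tool a day after seeding, alone with one drug or with a fixed anchor-drug dose plus five library-drug doses (not always all listed) in √10 steps, and nuclei were counted after 5 days.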
# VX-11e + OSI-027 = compound: CC1=CN=C(N=C1C2=CNC(=C2)C(=O)N[C@H](CO)C3=CC(=CC=C3)Cl)NC4=C(C=C(C=C4)F)Cl [VX-11e] + COc1cccc2cc(-c3nc([C@H]4CC[C@H](C(=O)O)CC4)n4ncnc(N)c34)[nH]c12 [OSI-027] (partner 0.5 µM)
# Outline: as §1
# VX-11e + Lapatinib = compound: CC1=CN=C(N=C1C2=CNC(=C2)C(=O)N[C@H](CO)C3=CC(=CC=C3)Cl)NC4=C(C=C(C=C4)F)Cl [VX-11e] + CS(=O)(=O)CCNCc1ccc(-c2ccc3ncnc(Nc4ccc(OCc5cccc(F)c5)c(Cl)c4)c3c2)o1 [Lapatinib] (partner 2 µM)
# Outline: as §1
# VX-11e + Linsitinib = compound: CC1=CN=C(N=C1C2=CNC(=C2)C(=O)N[C@H](CO)C3=CC(=CC=C3)Cl)NC4=C(C=C(C=C4)F)Cl [VX-11e] + C[C@]1(O)C[C@@H](c2nc(-c3ccc4ccc(-c5ccccc5)nc4c3)c3c(N)nccn32)C1 [Linsitinib] (partner 1 µM)
# Outline: as §1
Cell Line,relative viability (VX-11e + Trametinib; first compound 0.04 µM),relative viability (VX-11e + Trametinib; first compound 0.1265 µM),relative viability (VX-11e + Trametinib; first compound 0.4 µM),relative viability (VX-11e + Trametinib; first compound 1.265 µM),relative viability (VX-11e + Trametinib; first compound 4 µM),relative viability (VX-11e + OSI-027; first compound 0.04 µM),relative viability (VX-11e + OSI-027; first compound 0.1265 µM),relative viability (VX-11e + OSI-027; first compound 1.265 µM),relative viability (VX-11e + OSI-027; first compound 4 µM),relative viability (VX-11e + Lapatinib; first compound 0.04 µM),relative viability (VX-11e + Lapatinib; first compound 0.1265 µM),relative viability (VX-11e + Lapatinib; first compound 0.4 µM),relative viability (VX-11e + Lapatinib; first compound 1.265 µM),relative viability (VX-11e + Lapatinib; first compound 4 µM),relative viability (VX-11e + Linsitinib; first compound 0.04 µM),relative viability (VX-11e + Linsitinib; first compound 0.1265 µM),relative viability (VX-11e + Linsitinib; first compound 0.4 µM),relative viability (VX-11e + Linsitinib; first compound 1.265 µM),relative viability (VX-11e + Linsitinib; first compound 4 µM),relative viability (VX-11e + OSI-027; first compound 0.4 µM)
NCI-H23,0.276,0.339,0.287,0.223,0.219,0.368,0.411,0.271,0.173,0.875,0.952,0.219,0.393,0.331,0.48,0.52,0.37,0.378,0.271,
NCI-H322M,0.468,0.484,0.426,0.586,0.46,0.535,0.401,0.417,0.364,0.581,,0.674,0.436,0.456,1.01,,0.781,0.688,0.534,0.319
NCI-H358,0.0982,0.135,0.0751,0.121,0.112,0.734,0.642,0.382,0.132,0.41,0.425,,0.391,0.274,0.738,0.52,,0.558,0.277,0.25
NCI-H460,0.134,0.161,0.0116,0.0437,0.0311,0.589,0.483,0.0819,0.0249,1.13,0.85,0.823,0.542,0.0703,1.17,0.849,0.674,0.0925,0.017,0.181
NCI-H520,0.647,0.668,0.528,0.481,0.22,0.247,0.25,0.217,0.313,0.951,0.791,0.687,0.87,0.572,0.948,0.898,0.827,1.06,0.69,0.203
NCI-H596,0.754,0.751,0.712,0.645,0.556,0.518,0.691,0.349,0.407,1.2,0.938,0.933,0.917,0.774,1.06,0.944,0.981,0.874,0.769,0.525
NCI-H647,0.51,0.358,0.211,0.163,0.217,0.664,0.456,0.41,0.353,0.863,0.902,0.546,0.476,0.353,1.1,1.05,1.09,0.674,0.378,0.496
NCI-H650,1.04,0.958,0.994,0.64,0.381,0.531,0.616,0.559,0.518,,0.894,0.944,,0.909,,0.79,0.957,,0.88,0.75
NCI-H661,0.568,0.542,0.476,0.506,0.376,0.727,0.632,0.625,0.396,0.527,0.5,0.446,0.386,0.314,0.598,0.617,0.568,0.501,0.394,0.751
NCI-H727,0.415,0.374,0.379,0.365,0.346,0.353,0.678,0.447,0.284,0.699,0.591,1.19,0.501,0.307,0.314,0.252,0.215,0.274,0.184,0.522
NCI-H838,0.457,0.505,0.513,0.484,0.455,0.356,0.413,0.347,0.262,0.856,0.92,0.396,0.701,0.627,1.06,0.933,0.96,0.887,0.79,0.3
NCI-H1355,0.406,0.411,0.372,0.33,0.221,0.302,0.311,0.256,0.224,0.613,0.948,0.879,0.728,0.48,0.861,0.798,0.786,0.574,0.374,0.197
NCI-H1395,1,0.942,,0.895,0.617,0.572,0.539,0.621,0.447,0.969,0.864,0.548,0.82,0.716,1.17,1.29,0.846,0.963,0.718,0.57
NCI-H1437,0.539,0.472,0.574,0.358,0.305,0.795,0.725,0.444,0.373,0.755,0.754,0.35,0.291,0.228,1.03,1.05,0.888,0.409,0.203,0.878
NCI-H1651,0.881,0.808,0.78,0.691,0.781,0.56,0.62,0.548,0.591,0.639,0.747,0.634,0.602,0.654,1.05,1.02,0.797,0.927,0.758,0.523
NCI-H1666,0.866,0.77,,0.848,0.726,0.932,0.777,0.611,0.524,0.713,0.99,0.467,0.43,0.388,0.846,0.81,0.594,0.493,0.42,0.75
NCI-H1734,0.619,0.675,0.536,0.557,0.375,0.566,0.459,0.348,0.227,0.808,1.05,0.745,0.805,0.46,0.797,0.789,0.814,0.837,0.536,0.472

Cell Line,relative viability (VX-11e + Trametinib; first compound 0.04 µM),relative viability (VX-11e + Trametinib; first compound 0.1265 µM),relative viability (VX-11e + Trametinib; first compound 0.4 µM),relative viability (VX-11e + Trametinib; first compound 1.265 µM),relative viability (VX-11e + Trametinib; first compound 4 µM),relative viability (VX-11e + OSI-027; first compound 0.04 µM),relative viability (VX-11e + OSI-027; first compound 0.1265 µM),relative viability (VX-11e + OSI-027; first compound 1.265 µM),relative viability (VX-11e + OSI-027; first compound 4 µM),relative viability (VX-11e + Lapatinib; first compound 0.04 µM),relative viability (VX-11e + Lapatinib; first compound 0.1265 µM),relative viability (VX-11e + Lapatinib; first compound 0.4 µM),relative viability (VX-11e + Lapatinib; first compound 1.265 µM),relative viability (VX-11e + Lapatinib; first compound 4 µM),relative viability (VX-11e + Linsitinib; first compound 0.04 µM),relative viability (VX-11e + Linsitinib; first compound 0.1265 µM),relative viability (VX-11e + Linsitinib; first compound 0.4 µM),relative viability (VX-11e + Linsitinib; first compound 1.265 µM),relative viability (VX-11e + Linsitinib; first compound 4 µM),relative viability (VX-11e + OSI-027; first compound 0.4 µM)
NCI-H1755,0.751,0.755,0.78,0.778,0.612,0.665,0.527,0.756,0.468,1.05,0.97,0.833,0.93,0.771,1.03,0.976,0.95,0.94,0.553,0.4
NCI-H1792,,0.392,,0.322,0.102,0.733,0.581,0.634,0.208,0.889,0.91,1,0.86,0.755,0.706,0.488,0.681,0.484,0.137,0.524
NCI-H1793,,0.316,,0.344,0.27,0.247,0.194,0.251,0.134,,0.611,,0.397,0.278,,0.687,,0.818,0.514,
NCI-H1915,0.305,0.284,0.233,0.204,0.114,0.573,0.439,0.338,0.213,0.981,0.92,0.984,0.976,0.808,1.21,1.12,1.19,1.04,0.857,0.254
NCI-H1944,0.468,0.441,0.343,0.347,0.282,0.342,0.343,0.309,0.259,0.748,0.733,0.621,0.647,0.586,1.08,1.09,0.998,0.862,0.552,
NCI-H1975,0.341,0.295,0.171,0.255,0.21,0.695,0.499,0.415,0.162,0.925,0.862,0.665,0.811,0.342,0.841,1.09,0.991,0.959,0.367,0.291
NCI-H1993,,0.493,0.576,0.506,0.451,0.556,0.538,0.605,0.677,,0.818,,0.73,0.727,,0.757,,0.769,0.666,0.557
NCI-H2009,0.22,0.209,0.247,0.162,0.169,0.637,0.665,0.226,0.168,0.944,0.891,0.729,0.265,0.438,1.17,1.11,1.18,1.09,0.259,0.559
NCI-H2023,0.601,0.495,0.391,0.292,0.171,0.332,0.349,0.183,0.114,0.72,0.874,0.1,0.387,0.303,0.727,0.692,0.596,0.362,0.283,0.139
NCI-H2085,0.495,0.516,0.524,0.482,0.497,0.625,0.695,0.322,0.251,0.596,0.765,0.73,0.647,0.608,0.987,0.818,0.834,0.9,0.649,0.517
NCI-H2087,0.255,0.182,,0.181,0.182,0.357,0.448,0.319,0.145,1.23,0.867,0.42,0.979,0.295,0.949,1.1,0.902,0.803,0.302,
NCI-H2126,0.543,0.539,0.575,0.523,0.473,0.533,0.816,0.448,0.541,,0.752,0.752,0.742,0.599,,0.735,0.689,0.677,0.556,0.315
NCI-H2228,0.518,0.466,0.0868,0.273,0.128,0.617,0.54,0.216,0.123,1.23,1.17,0.158,0.691,0.309,0.577,0.692,0.489,0.308,0.214,
NCI-H2347,0.282,0.261,0.297,0.241,0.267,0.418,0.467,0.255,0.21,1.05,0.878,0.809,0.809,0.453,1.07,0.927,0.798,0.7,0.496,0.337
NCI-H2405,0.716,0.582,0.271,0.649,0.283,0.587,0.599,0.768,0.37,1.07,1.01,,1.05,0.349,0.933,0.787,,0.817,0.272,0.375
NCI-H3122,0.236,0.239,0.177,0.29,0.148,0.892,0.898,0.513,0.147,1.07,0.98,0.855,0.892,0.626,0.971,1.01,0.974,0.929,0.58,

# — the supplement of paper PMC10307832
